# Reference: patent publication US10772327B2, “Herbicide composition containing isopropylamine caprylate” (HUNAN AGRICULTURAL BIOTECHNOLOGY RESEARCH INSTITUTE, priority 2018, dated 2020)
# How the values were obtained:
# Assay in all cases: Indoor test for herbicidal activity, stem and leaf spray on potted weeds
# Details in all cases: Day 7, fresh weight of above-ground portion
# Ludwigia prostrata = tested on: Ludwigia prostrata
# Echinochloa crusgalli = tested on: Echinochloa crusgalli
# Stellaria media = format: in vivo
# Veronica persica = format: in vivo
# Cardamine hirsuta = format: in vivo
# Myosoton aquaticum = format: in vivo
# Conyza candesis = format: in vivo
# Beckmannia syzigachne = format: in vivo
# Poa annua = format: in vivo
# Eleocharis yokoscensis = format: in vivo
# Xanthium sibiricum = format: in vivo
# [1] = listed as glyphosate isopropylamine
# [2] = listed as glyphosate isopropylamine salt
# [3] = listed as isopropylamine caprylate
smiles,measurement,setting,value
CCCCCCCC(=O)O [Caprylic acid],ED50 (95% confidence interval of ED50),Ludwigia prostrata,12.52 (10.66-14.43) mg/mL
same,ED90 (95% confidence interval of ED90),Ludwigia prostrata,96.04 (85.15-108.33) mg/mL
same,ED50 (95% confidence interval of ED50),Ludwigia prostrata; listed as caprylic acid,12.52 mg/mL
same,ED50 (95% confidence interval of ED50),Echinochloa crusgalli,14.07 (13.66-14.48) mg/mL
same,ED90 (95% confidence interval of ED90),Echinochloa crusgalli,108.65 (92.83-124.80) mg/mL
same,ED50 (95% confidence interval of ED50),Echinochloa crusgalli; listed as caprylic acid,14.07 mg/mL
CC(C)N.O=C(O)CNCP(=O)(O)O [Glyphosate isopropylamine],ED50 (95% confidence interval of ED50),Ludwigia prostrata,46.79 (41.87-52.27) mg/mL
same,ED90 (95% confidence interval of ED90),Ludwigia prostrata,321.75 (271.72-380.99) mg/mL
same,ED50 (95% confidence interval of ED50),Ludwigia prostrata; [1],46.79 mg/mL
same,ED50 (95% confidence interval of ED50),Ludwigia prostrata; [2],46.79 mg/mL
same,ED50 (95% confidence interval of ED50),Echinochloa crusgalli,52.18 (40.13-65.02) mg/mL
same,ED90 (95% confidence interval of ED90),Echinochloa crusgalli,384.59 (360.35-420.77) mg/mL
same,ED50 (95% confidence interval of ED50),Echinochloa crusgalli; [1],52.18 mg/mL
same,ED50 (95% confidence interval of ED50),Echinochloa crusgalli; [2],52.18 mg/mL
"CCCCCCCC(=O)O [Isopropylamine caprylate, isopropylamine caprylate]",ED50 (95% confidence interval of ED50),Stellaria media,0.80 (0.47-1.77) mg/mL
same,ED90 (95% confidence interval of ED90),Stellaria media,16.69 (7.91-26.98) mg/mL
same,ED50 (95% confidence interval of ED50),Ludwigia prostrata,0.52 (0.35-0.61) mg/mL
same,ED90 (95% confidence interval of ED90),Ludwigia prostrata,13.21 (9.17-18.31) mg/mL
same,ED50 (95% confidence interval of ED50),Ludwigia prostrata; [3],0.52 mg/mL
same,ED50 (95% confidence interval of ED50),Veronica persica,0.78 (0.28-2.35) mg/mL
same,ED90 (95% confidence interval of ED90),Veronica persica,9.16 (5.09-22.65) mg/mL
same,ED50 (95% confidence interval of ED50),Cardamine hirsuta,0.90 (0.11-2.46) mg/mL
same,ED90 (95% confidence interval of ED90),Cardamine hirsuta,18.36 (10.74-35.88) mg/mL
same,ED50 (95% confidence interval of ED50),Echinochloa crusgalli,4.07 (2.66-10.48) mg/mL
same,ED90 (95% confidence interval of ED90),Echinochloa crusgalli,28.65 (22.83-40.82) mg/mL
same,ED50 (95% confidence interval of ED50),Echinochloa crusgalli; [3],4.07 mg/mL
same,ED50 (95% confidence interval of ED50),Myosoton aquaticum,0.18 (0.04-0.25) mg/mL
same,ED90 (95% confidence interval of ED90),Myosoton aquaticum,16.47 (8.35-20.23) mg/mL
same,ED50 (95% confidence interval of ED50),Conyza candesis,0.74 (0.25-1.05) mg/mL
same,ED90 (95% confidence interval of ED90),Conyza candesis,15.54 (8.74-20.93) mg/mL
same,ED50 (95% confidence interval of ED50),Beckmannia syzigachne,3.07 (1.66-8.48) mg/mL
same,ED90 (95% confidence interval of ED90),Beckmannia syzigachne,30.65 (24.12-44.50) mg/mL
same,ED50 (95% confidence interval of ED50),Poa annua,3.07 (2.66-10.48) mg/mL
same,ED90 (95% confidence interval of ED90),Poa annua,28.65 (22.83-40.82) mg/mL
same,ED50 (95% confidence interval of ED50),Eleocharis yokoscensis,3.23 (2.00-9.55) mg/mL
same,ED90 (95% confidence interval of ED90),Eleocharis yokoscensis,24.11 (18.74-40.82) mg/mL
same,ED50 (95% confidence interval of ED50),Xanthium sibiricum,0.64 (0.22-1.03) mg/mL
same,ED90 (95% confidence interval of ED90),Xanthium sibiricum,19.11 (10.80-31.14) mg/mL
